These results are taken from patent publication US20060182792A1, “Liposome-forming compositions” (priority 2002, published 2006).

Each structure is given as a SMILES string.

A short description of this data set: Absolute oral bioavailability of liposomally administered octreotide per os in rats. How it is done:
Wistar rats (with approximately 250 g body weight) fast for 12 hours and receive 0.5 ml of the aqueous mixture of the composition according to the invention by pharyngeal probe so that the administered amount of octreotide is 100 μg per animal. As a comparative test 100 μg of free octreotide was dissolved in 0.5 ml of PBS and administered via pharyngeal probe. Blood samples were taken after 30, 60, 120 and 240 min. retroorbitally. An i.v. injection of 2 μg of octreotide per animal provided a control in order to determine the absolute bioavailability. […] Six animals were tested for each formulation.

As to `C[C@@H](O)[C@@H]1NC(=O)[C@H](CCCCN)NC(=O)[C@@H](Cc2c[nH]c3ccccc23)NC(=O)[C@H](Cc2ccccc2)NC(=O)[C@@H](NC(=O)[C@H](N)Cc2ccccc2)CSSC[C@@H](C(=O)N[C@H](CO)[C@@H](C)O)NC1=O` [Free, octreotide], the bioavailability (Wistar, rat, in vivo, 100 μg per animal) was determined as 0.5%. Further, the “Gain factor of the absolute bioavailability vs free octreotide” value (free octreotide, oral, 0.1 mg/animal, lipid/peptide 0) was 1.
